In patent EP4644377A1, “LIPID COMPOUND FOR GENE DELIVERY AND LIPID NANOPARTICLE COMPRISING SAME” (NANJING CYBERNAX BIOMEDICAL TECHNOLOGY CO., LTD., priority 2022, dated 2024):

Tests used:
293T cells [1] = test: In vitro eGFP plasmid DNA transfection; assay type: cell-based; conditions: 100 ng plasmid DNA per well, 48 h, fluorescence microscope, versus lipofectamine 3000
Method: 293T cells were inoculated into a 96-well cell culture plate at a density of 40,000 cells per well, LNPs prepared from lipid 284 and lipid 424 was used to coat plasmid DNA expressing eGFP, lipofectamine 3000 was used as a control group, 100 ng of plasmid DNA coated by the above vehicle was given to cells per well, the expression of eGFP was observed through a fluorescence microscope after co-culture for 48 h.

C57Bl/6 mice = test: Luciferase mRNA delivery in mice, IVIS chemiluminescence; assay type: in vivo
Method: The animal experiments were reviewed and approved by the Ethics Committee of Zhejiang Medical College and the Ethics Committee of Zhejiang University of Technology. 6- to 8-week-old male C57Bl/6 mice were randomly grouped with 3 mice in each group. The mice in each group received a lipid nanoparticle coating mRNA expressing a luciferase via tail vein injection at a dose of 0.25 mg/kg mouse body weight (calculated by the mass of coated mRNA). […] The mRNA delivery effect of the lipid nanoparticle is quantitatively compared through a total chemiluminiscence quantity (Total Flux p/s) of a mouse whole body within unit time (shown in Table 5).
Table 13 and Table 14 show whole body chemiluminescent signals when LNPs (formulation 2) composed of the lipids in some examples deliver Flue mRNA in mice. The delivery dose of Flue mRNA was 0.25 mg/kg. 6 h after LNP injection, 150 mg/kg of D-luciferin was intraperitoneally injected into the mice, and then the whole body chemiluminescent signals were collected in the IVIS imaging system after 10 min. […]

[2] = Particle size detection of LNP (Brookhaven NanoBrook Omni, DLS); assay type: physicochemical
Method: Step 1. Preparation of a lipid solution and a nucleic acid solution: unless otherwise specified, all aqueous solutions involved in examples were prepared from deionized water without nucleases. An ionizable lipid, a phospholipid (disaturated phosphatidylcholine (DSPC) or dioleoylphosphatidylethanolamine (DOPE)), cholesterol and a PEG lipid (DMG-PEG2000) were mixed in a molar ratio of 50/10/38.5/1.5 (containing DSPC, formulation 1) or 36.5/16/46.5/2.5 (containing DOPE, formulation 2) and dissolved into an ethanol solution. Meanwhile, a nucleic acid (a mass ratio of ionizable lipid/nucleic acid was 10/1) was dissolved into a citrate buffer solution of pH=3, so that a final volume ratio of the ethanol solution to the citrate solution was 1/3.
Step 2. Preparation of LNP by mixing the lipid solution with the nucleic acid solution: the lipid ethanol solution and the nucleic acid aqueous solution that were prepared in Step 1 were respectively put into a sterile syringe and placed in a Precision Nanosystem Ignite instrument, the extrusion flow speeds of the ethanol solution and the water phase solution were respectively set as 3 ml/min and 9 ml/min in instrument program settings. A microfluidic chip was inserted into the instrument and LNP preparation was initiated, and then a solution mixed by the chip was collected.
Step 2.1. Preparation of an LNP solution coating nucleic acid in a porous plate: a solution of an ionizable lipid, a phospholipid (DSPC or DOPE), cholesterol and a PEG lipid (DMG-PEG2000) in ethanol was added into each well of a 96-well deep plate, so that a molar ratio of four component lipids in each well was 50/10/38.5/1.5 (containing DSPC, formulation 1) or 36.5/16/46.5/2.5 (containing DOPE, formulation 2). Then, a citrate buffer solution (pH=3, the mass of nucleic acid added into each well was 1/10 that of the ionizable lipid in this well) that was three times as ethanol in volume and dissolved with a nucleic acid molecule was quickly added into the well plate through a multi-channel pipette or an automatic liquid dispensing system and rapidly mixed, so as to obtain the LNP solution coating nucleic acid.
Step 3. Purification of the LNP solution: the LNP solution collected in Step 2 or Step 2.1 was subjected to dialysis-concentration-filtration operations, so as to obtain a final LNP solution coating nucleic acid for subsequent testing.
The LNP solution coating nucleic acid obtained in Step 3 was diluted so that the final lipid concentration was between 0.01 mg/ml and 0.1 mg/ml. The diluted solution was added into a sample reservoir, and then subjected to particle size detection in a Brookhaven NanoBrook Omni instrument.

A549 cells = test: In vitro delivery of luciferase mRNA by LNPs, A549 cells; assay type: cell-based, human; conditions: 100 ng luciferase mRNA per well, 24 h; ratio to naked mRNA control; result in words
Method: (§1) Human embryonic kidney cells (293T cells) and human non-small cell lung cancer cell lines (A549 cells) were obtained from the Chinese Type Culture Collection Center and cultured in DMEM high glucose culture medium containing 10% fetal bovine serum under the environment of 37°C and 5% CO2. The cells were inoculated in a 96-well cell culture plate in a density of 32,000 cells per well. LNPs coating mRNA expressing luciferase (Trilink, USA) were taken and added into the wells at a dose of 100 ng of mRNA per well. Meanwhile, control wells were set on each culture plate, and 100 ng of naked mRNA that was not coated by LNPs was added into each well. The cell culture plate was placed in a cell incubator for 24 h of co-culture under the conditions of 37°C and 5% CO2, and then the transfection effect of mRNA was detected through a One-LumiTM firefly luciferase reporter gene detection kit. The transfection results of LNPs in 293T cells are shown in FIG. 1 to FIG. 6 and FIG. 13 (upper), and the transfection results of LNPs in A549 cells are shown in FIG. 7 to FIG. 12 and FIG. 13 (lower). The transfection efficiency is expressed as a ratio of chemiluminescent intensity of LNP group to chemiluminescent intensity of control group (direct delivery of naked luciferase mRNA that is not coated by LNP).

293T cells [3] = test: In vitro delivery of luciferase mRNA by LNPs, 293T cells; assay type: cell-based, Human; conditions: 100 ng luciferase mRNA per well, 24 h; ratio to naked mRNA control; result in words
Method: as §1

[4] = Determination of total nucleic acid and encapsulation efficiency (Quant-iT RiboGreen RNA kit); assay type: physicochemical; conditions: for encapsulation efficiency: LNP with RSV-mRNA, lipid ratio of formulation 1, N/P 6
Method: The content of nucleic acids in an LNP sample was determined through a Quant-iT™ RiboGreen® RNA detection kit (Thermofisher). The detection of total RNA concentration: 5 µl of to-be-detected sample was placed into 2 ml of ep tube, 245 µl of 1xTE Buffer was added, and the above materials were evenly mixed to obtain a "diluted sample". 100 µl of the above "diluted sample" was taken, 100 µl of 10% TritonX-100 solution was added, the above materials were sufficiently and evenly mixed, and then the obtained mixture was demulsified for 15 min in metal bath under the conditions of 37°C and 300 rpm; and 80 µl of 1xTE Buffer was added into an ELISA plate, 20 µl of demulsified sample was taken and added into the ELISA plate to be evenly mixed, and then 100 µl of fluorescence dye (2000-fold dilution) solution was added.
Detection of free RNA concentration: 90 µl of 1xTE Buffer was added into the ELISA plate, 10 µl of the above "diluted sample" was taken, and 100 µl of fluorescence dye (2000-fold dilution) solution was added.
Meanwhile, a series of standard solutions having different concentrations were set in the ELISA plate as quantitative standard curves. The samples were loaded onto the ELISA plate to detect fluorescence signals (with an excitation wavelength of 480 nm and an emission detection wavelength of 520). A corresponding RNA concentration was obtained after the fluorescence signal in each well was converted via the standard curve.
Calculation method of encapsulation efficiency: EE(%) = (Concentration of total mRNA−concentration of free mRNA)/(Concentration of total mRNA)∗100% [formula]

[5] = test system: respiratory syncytial virus (RSV); test: RSV mRNA vaccine in mice, RSV true virus neutralizing antibody titers; assay type: in vivo, BALB/c mice; conditions: 10 µg per mouse i.m., two immunizations three weeks apart, serum 14 days after the second; result in words versus antigen protein or SM102
Method: An RSV antigen mRNA sequence with a pre-fusion F protein conformation was prepared by a cap analogue co-transcription method, the sequence information is as shown in sequence 1 (SEQ ID NO: 1), and the amino acid sequence of the expressed antigen protein is as shown in sequence 2 (SEQ ID NO: 2). LNPs containing RSV-mRNA were prepared by respectively using lipid 174 and sm102 in a lipid ratio of formulation 1, wherein N/P was 6. The particle sizes and mRNA encapsulation efficiency data of two LNPs are as follows: lipid 174 has a particle size of 77.6 nm and an encapsulation efficiency of 96.2%; and sm102 has a particle size of 96.1 nm and an encapsulation efficiency of 97.9%. The LNP preparation encapsulating RSV mRNA and an F protein antigen with a pre-fusion conformation were intramuscularly administrated to BALB/c mice at a dose of 10 µg per mouse, with immunization once every three weeks for two immunizations in total. 14 days after secondary immunization, mouse serum was collected and submitted to CRO for detection of RSV true virus neutralizing antibody titers.

[6] = test system: enhanced green fluorescent protein (EGFP) gene; test: LNP delivery of gene editing system (spCas9 mRNA + sgGFP), GFP knockout by flow cytometry; assay type: cell-based; conditions: HEK 293/eGFP-aavs1 cells, 200 ng total RNA per well, 48 h, average
Method: LNPs were prepared by using a composition ratio in formulation 2 and simultaneously coating spCas9 mRNA and sgRNA (sgGFP sequence: […]) with lipid 284, wherein N/P was 6, and a mass ratio of mRNA to sgRNA was 3/1. By DLS detection, the particle size of LNP was about 130 nm, PDI was 0.15, and the RNA encapsulation efficiency was greater than 95%. An HEK 293/eGFP-aavs1 stable cell line stably expressing a green fluorescence protein (GFP) was inoculated into a 96-well cell culture plate at a density of 40,000 cells per well. After incubation for 24 h, LNPs containing 200 ng of total RNA were added into each well, cells were collected after 48 h and the knockout efficiency cells of GFP were detected on a flow cytometer.

[7] = LNPs (formulation 2), Flue mRNA 0.25 mg/kg, tail vein injection, whole body signal 6 h after LNP injection, 10 min after 150 mg/kg D-luciferin i.p.
[8] = LNPs after coating mRNA (luciferase)
[9] = LNP formulation 2 (SM102: formulation 1), luciferase mRNA 0.25 mg/kg, tail vein, C57Bl/6 mice, whole body signal 6 h after LNP, 10 min after D-luciferin 150 mg/kg i.p.
[10] = LNP with RSV-mRNA, lipid ratio of formulation 1, N/P 6
[11] = formulation 2, spCas9 mRNA and sgRNA 3/1, N/P 6, DLS

Row | Compound | eGFP expression (delivery efficiency and positive cell ratio) (293T cells [1]) | Chemiluminescent signal (p/s) (C57Bl/6 mice; [7]) | PDI [2, 8] | Particle size [2, 8] | transfection (delivery) efficiency of LNP in A549 cells (A549 cells) | Chemiluminescent signal (p/s) (C57Bl/6 mice; [9]) | transfection (delivery) efficiency of LNP in 293T cells (293T cells [3]) | encapsulation efficiency [4] | Particle size [2, 10] | also measured
1 | CCCCCCCCC(CCCCCC)C(=O)OCCCCCCNC(=O)C(N(CCCN(C)C)C(=O)CCCCCCC(=O)OCC(C)CCCCCCC)C(C)(C)C (stereo not drawn) [Lipid 424] | delivery efficiencies and positive cell ratios exceed those in control group lipofectamine3000 | 8.40E+ 10 p/s | 0.11 | 153 ± 2.11 nm·days |  |  |  |  |  | 
2 | CC/C=C\C/C=C\C/C=C\C/C=C\C/C=C\CCCC(=O)N(CCCN(C)C)C(C(=O)NCCCCCCCCCCCCCC)C(C)(C)C (stereo not drawn) [Lipid 157] |  |  |  |  | relatively high delivery efficiency | 4.26E+09 p/s | relatively high delivery efficiency |  |  | 
3 | CCCCCCCCCCCCCC(=O)N(CCCN(C)C)C(C(=O)NCCCCCCCC(=O)OC(CCCCCCCC)CCCCCCCC)C(C)(C)C (stereo not drawn) [Lipid 174] |  |  | 0.17 | 202.44 ± 2.28 nm·days | relatively high delivery efficiency | 3.15E+09 p/s | relatively high delivery efficiency | 96.2% | 77.6 nm | RSV true virus neutralizing antibody titer [5]: can efficiently stimulate the mouse to generate a neutralizing antibody targeting RSV
4 | CCCCCCCCCCCCCC(=O)N(CCCN(C)C)C(C(=O)NCCCCCCOC(=O)C(CCCCCC)CCCCCCCC)C(C)(C)C (stereo not drawn) [Lipid 284] | delivery efficiencies and positive cell ratios exceed those in control group lipofectamine3000 |  |  |  |  | 2.42E+10 p/s |  |  |  | cells with significant knockdown of GFP expression [6]: 41.2%; RNA encapsulation efficiency ([4]; formulation 2, spCas9 mRNA and sgRNA 3/1, N/P 6): greater than 95%; PDI [2, 11]: 0.15; particle size of LNP [2, 11]: about 130 nm
5 | CCCCCCCCCCCOC(=O)CCCCCN(CCO)CCCCCCCC(=O)OC(CCCCCCCC)CCCCCCCC [SM102, heptadec-9-yl-8-((2-hydroxyethyl) (6-oxo-6-((undecyloxy)hexyl)amino) octanoate, reference compound] |  |  |  |  |  | 3.93E+09 p/s |  | 97.9% | 96.1 nm | 
6 | CCCCCCCCC(CC)OC(=O)CCCCCCCNC(=O)C(N(CCCN(C)C)C(=O)CCCCCCCCCC(=O)OC(CCCCCC)CCCCCC)C(C)(C)C (stereo not drawn) [Lipid 407] |  | 8.00E+10 p/s | 0.18 | 97.4 ± 0.64 nm·days |  |  |  |  |  | 
